Results: ChEMBL document CHEMBL1201862, “PubChem BioAssay data set” (2004)
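Method: 48-hour compound exposure of cells in 96-well plates, five concentrations, linear interpolation of endpoints. Abbreviation: GI50, concentration required for 50% inhibition of growth.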 The source made the active and inactive calls. Rule as the data show it: active = GI50 up to about 1.1 µM and inactive = higher.

Columns and labels:
Assay in all cases: NCI-60 cell line screen, 48 h
ACHN = test system: ACHN
A498 = test system: A498
SF-539 = test system: SF-539
Malme-3M = test system: Malme-3M
KM12 = test system: KM12
SR = test system: SR
HOP-62 = test system: HOP-62
MCF7 = test system: MCF7
RXF 393 = test system: RXF 393
TK-10 = test system: TK-10
SW-620 = test system: SW-620
PC-3 = test system: PC-3
BT-549 = test system: BT-549
NCI-H460 = test system: NCI-H460
NCI/ADR-RES = test system: NCI/ADR-RES

Row | SMILES | GI50 (ACHN) | GI50 (A498) | GI50 (SF-539) | GI50 (Malme-3M) | GI50 (KM12) | GI50 (SR) | GI50 (HOP-62) | GI50 (MCF7) | GI50 (RXF 393) | GI50 (TK-10) | GI50 (SW-620) | GI50 (PC-3) | GI50 (BT-549) | GI50 (NCI-H460) | GI50 (NCI/ADR-RES)
1 | NC(=O)CCSC(CC(=O)c1ccc(Cl)cc1)c1ccc(Cl)cc1 (stereo not drawn) | 34.7 µM (inactive) | 22.5 µM (inactive) | 19.7 µM (inactive) | 24.9 µM (inactive) | 6.11 µM (inactive) | 4.06 µM (inactive) | 28.1 µM (inactive) | 5.08 µM (inactive) | 17.9 µM (inactive) | 48 µM (inactive) | 3.08 µM (inactive) | 34.6 µM (inactive) | 36.1 µM (inactive) | 35.9 µM (inactive) | 22.8 µM (inactive)
2 | COCCCNc1c2ccccc2nc2ccccc12 | 0.813 µM (active) | 3.97 µM (inactive) | 2.26 µM (inactive) | 1.87 µM (inactive) | 4.39 µM (inactive) | 2.86 µM (inactive) | 3.29 µM (inactive) | 2.34 µM (inactive) | 3.35 µM (inactive) | 5.62 µM (inactive) | 2.44 µM (inactive) | 2.01 µM (inactive) | 10.9 µM (inactive) | 1.54 µM (inactive) | 3.82 µM (inactive)
3 | N#CC1=C(N)C(C#N)(C#N)C(c2ccc(F)cc2)C=C1C1CC1 (stereo not drawn) | 12.9 µM (inactive) | 11.4 µM (inactive) | 0.597 µM (active) | 11.5 µM (inactive) | 4.14 µM (inactive) | 3.27 µM (inactive) | 13.1 µM (inactive) | 5.09 µM (inactive) | 5.96 µM (inactive) | 15.5 µM (inactive) | 6.95 µM (inactive) | 10.2 µM (inactive) | 3.2 µM (inactive) | 5.2 µM (inactive) | 14.5 µM (inactive)
4 | CCOC(=O)C1=CN/C(=C(/C)C(=O)OC)SC1C(=O)OCC (stereo not drawn) | > 100 µM (inactive) | > 100 µM (inactive) | > 100 µM (inactive) | > 100 µM (inactive) | > 100 µM (inactive) | 47.8 µM (inactive) | > 100 µM (inactive) | > 93.5 µM (inactive) | > 100 µM (inactive) | > 92.9 µM (inactive) | > 100 µM (inactive) | 69.7 µM (inactive) | > 90.6 µM (inactive) | > 90.4 µM (inactive) | > 84.3 µM (inactive)
5 | CC(C)(C)[Si](C)(C)OCCOCn1cc(F)c(=O)[nH]c1=O | > 100 µM (inactive) | > 100 µM (inactive) | > 100 µM (inactive) | > 100 µM (inactive) | > 100 µM (inactive) | > 100 µM (inactive) | > 100 µM (inactive) | > 100 µM (inactive) | > 100 µM (inactive) | > 100 µM (inactive) | > 100 µM (inactive) | > 100 µM (inactive) | > 100 µM (inactive) | > 100 µM (inactive) | > 100 µM (inactive)
6 | Cc1cccc(NC(=O)O/N=C(\Cl)C(C)C)c1 | 2.02 µM (inactive) | 18.5 µM (inactive) | 6.21 µM (inactive) | 2.19 µM (inactive) | 19.4 µM (inactive) | 1.38 µM (inactive) | 19 µM (inactive) | 10 µM (inactive) | 13.9 µM (inactive) | 14 µM (inactive) | 2.19 µM (inactive) | 16.7 µM (inactive) | 5.45 µM (inactive) | 16.8 µM (inactive) | 21.3 µM (inactive)
7 | COC(C)(C)CCc1[nH]c2ccccc2c1CC(=O)NCCc1cncn1C | > 100 µM (inactive) | 34.3 µM (inactive) | > 100 µM (inactive) | > 100 µM (inactive) | > 100 µM (inactive) | > 100 µM (inactive) |  | > 100 µM (inactive) | > 100 µM (inactive) | > 100 µM (inactive) | > 100 µM (inactive) | > 100 µM (inactive) | > 100 µM (inactive) | > 100 µM (inactive) | > 100 µM (inactive)
8 | O=c1[nH]nc(Cc2ccccc2)n1/N=C/c1cccnc1 | > 100 µM (inactive) | > 100 µM (inactive) | > 100 µM (inactive) | > 100 µM (inactive) | 27.3 µM (inactive) | > 100 µM (inactive) | > 100 µM (inactive) | > 100 µM (inactive) | > 100 µM (inactive) | > 100 µM (inactive) | > 100 µM (inactive) | > 100 µM (inactive) | 25 µM (inactive) | > 100 µM (inactive) | > 100 µM (inactive)
9 | COc1cc2c(cc1OC)C1(c3ccccc3)CN(C2)Cc2cc(OC)c(OC)cc21 | 54.1 µM (inactive) | 35.2 µM (inactive) | 19.3 µM (inactive) | 36.4 µM (inactive) | 30.8 µM (inactive) | 5.3 µM (inactive) | 40.6 µM (inactive) | 33.3 µM (inactive) | 22.8 µM (inactive) | 44.7 µM (inactive) | 33.6 µM (inactive) | 31.3 µM (inactive) | 29.8 µM (inactive) | 30.2 µM (inactive) | 25.4 µM (inactive)
10 | O=C1OI(C#Cc2ccccc2)c2ccccc21 | 2.18 µM (inactive) | 4.57 µM (inactive) | 2.16 µM (inactive) | 1.53 µM (inactive) | 3.52 µM (inactive) | 1.46 µM (inactive) | 6.41 µM (inactive) | 3.69 µM (inactive) | 5.43 µM (inactive) | 3.29 µM (inactive) | 2.19 µM (inactive) | 4.54 µM (inactive) | 2.88 µM (inactive) | 3.18 µM (inactive) | 5.98 µM (inactive)
11 | N/N=C1/C2CN3CCN(C2)CC1(c1ccc([N+](=O)[O-])cc1)C3 | > 100 µM (inactive) | > 100 µM (inactive) | > 100 µM (inactive) | > 100 µM (inactive) | > 100 µM (inactive) | 27.7 µM (inactive) | > 100 µM (inactive) | > 100 µM (inactive) | > 100 µM (inactive) | > 100 µM (inactive) | > 100 µM (inactive) | > 100 µM (inactive) | > 100 µM (inactive) |  | > 100 µM (inactive)
12 | COc1ccc(-n2nnc3c(C#N)c(-c4ccccc4)c(C)n3c2=O)cc1 | 30.1 µM (inactive) | 38.1 µM (inactive) | 31.7 µM (inactive) | > 100 µM (inactive) | 48.9 µM (inactive) | 7.45 µM (inactive) | 35.4 µM (inactive) | 40.2 µM (inactive) | 28.4 µM (inactive) | 84.7 µM (inactive) | 27.2 µM (inactive) | 29.2 µM (inactive) | > 100 µM (inactive) | 51.4 µM (inactive) | 66.2 µM (inactive)
13 | Cc1ccc(C(=O)C2CC3(CCC2(O)c2ccc(C)cc2)CC(=O)Nc2ccccc2C3=O)cc1 (stereo not drawn) |  | > 100 µM (inactive) | > 100 µM (inactive) | > 100 µM (inactive) |  | > 100 µM (inactive) | 99.3 µM (inactive) | 7.6 µM (inactive) | 16.1 µM (inactive) | > 100 µM (inactive) | > 100 µM (inactive) | 7.05 µM (inactive) | > 100 µM (inactive) | 40 µM (inactive) | > 100 µM (inactive)
14 | C=C(C(=O)O)[C@@H]1C[C@@H](OC(C)=O)[C@]2(C)CC/C=C(\C)CCC[C@H](C)[C@H](O)[C@@H]1O2 | 55.7 µM (inactive) | > 100 µM (inactive) | 18 µM (inactive) | 61.7 µM (inactive) | 41.9 µM (inactive) | 24.3 µM (inactive) |  | 26.7 µM (inactive) | 18.5 µM (inactive) | 57.4 µM (inactive) | 40.1 µM (inactive) | 39.7 µM (inactive) | 25.1 µM (inactive) | 66.4 µM (inactive) | 33.3 µM (inactive)
15 | Nc1nn2c(nc(N)c3c(N)n[nH]c32)c1/N=N\c1ccc(Br)cc1 | 69.3 µM (inactive) | > 100 µM (inactive) | 15.1 µM (inactive) | 4.42 µM (inactive) | 13.1 µM (inactive) | 2.72 µM (inactive) | 42.9 µM (inactive) | > 100 µM (inactive) | > 100 µM (inactive) | 66.8 µM (inactive) | 43.7 µM (inactive) | > 100 µM (inactive) | 2.92 µM (inactive) | > 100 µM (inactive) | > 100 µM (inactive)
16 | Nc1c(C(=O)Nc2ccc([As](=O)(O)O)cc2)cnc2nnnn12 | > 100 µM (inactive) | > 100 µM (inactive) | > 100 µM (inactive) | > 100 µM (inactive) | > 100 µM (inactive) | > 100 µM (inactive) | > 100 µM (inactive) | > 100 µM (inactive) | > 100 µM (inactive) | > 100 µM (inactive) | > 100 µM (inactive) | > 100 µM (inactive) | > 100 µM (inactive) | > 100 µM (inactive) | > 100 µM (inactive)
17 | COc1ccc(OC)c(C(=O)/C=C/c2cc(O)c(O)cc2F)c1 | 2.27 µM (inactive) | 3.17 µM (inactive) | 0.258 µM (active) | 2.47 µM (inactive) | 0.474 µM (active) | 0.227 µM (active) | 1.05 µM (active) | 0.29 µM (active) | 1.37 µM (inactive) | 6.58 µM (inactive) | 0.845 µM (active) | 4.18 µM (inactive) | 0.843 µM (active) | 2.14 µM (inactive) | 0.412 µM (active)
18 | CCCCCCc1ccc(C(=O)NO)cc1 | 22.9 µM (inactive) | 29.2 µM (inactive) | 49.8 µM (inactive) |  | 44.9 µM (inactive) | 9.98 µM (inactive) | 34.2 µM (inactive) | 59.3 µM (inactive) | 41.2 µM (inactive) | 51.5 µM (inactive) | 64.4 µM (inactive) | 31.8 µM (inactive) | 28.6 µM (inactive) | 25 µM (inactive) | 15.3 µM (inactive)
19 | Nc1ncnc2c1nc(-c1ccccc1)n2C1OC(CO)C(O)C1O (stereo not drawn) | > 100 µM (inactive) | > 100 µM (inactive) | > 100 µM (inactive) |  | 86.7 µM (inactive) | > 100 µM (inactive) | > 100 µM (inactive) | > 100 µM (inactive) | > 100 µM (inactive) | > 100 µM (inactive) | > 100 µM (inactive) | > 100 µM (inactive) | > 100 µM (inactive) | > 100 µM (inactive) | > 100 µM (inactive)
